{
  "source": "patent US10466253B2",
  "about": "“Molecular flux rates through critical pathways measured by stable isotope labeling in vivo, as biomarkers of drug action and disease activity” (The Regents of the University of California, priority 2004, dated 2019)",
  "key": {"[1]": {"system": "liver cells", "assay": "Liver cell proliferation under carbon tetrachloride treatment (2H2O labeling)", "format": "in vivo, Swiss Webster mice", "conditions": "IP injections over 7 days, increasing doses, concurrent 2H2O", "protocol": "FIG. 13 depicts in vivo dose response of liver cell proliferation over 7 days of carbon tetrachloride treatment. Swiss Webster mice were given IP injections of CCl4 over 7 days concurrent with ^2H2O.\nMice are given CCl4 i.p. twice weekly for up to 4 weeks, and continuous oral ^2H2O is given throughout, following an i.p. bolus of ^2H2O. Livers are perfused in situ with saline to minimize blood cell contamination. Livers are homogenized and DNA from 5-mg aliquots is analyzed for ^2H incorporation by gas chromatography/mass spectrometry analysis, after isolation and hydrolysis of genomic DNA, as described in Example 1, supra. Livers are collected 4 days after the last dose of CCl4. The cell proliferation rate can then be calculated from the enrichment in the DNA of the target cell compared to measured body water enrichment or to a reference cell type which is fully replaced.\nDNA is extracted from a liver sample, either by biopsy or liver homogenate. Liver cell proliferation can be determined on a sample a small as 2 mg (400,000 cells). The use of total liver, rather than isolated hepatocytes, allows for efficient scale-up and the sample processing can be adapted to a 96-well automated system for extremely high throughput. Total liver cell proliferation will be compared to the measured proliferation of isolated hepatocytes, and non-parenchymal cells for validation. […]"}, "[2]": {"system": "liver collagen synthesis", "assay": "Liver collagen synthesis in CCl4-induced liver fibrosis", "conditions": "fibrotic agent alone"}},
  "data": [
    {"smiles": "ClC(Cl)(Cl)Cl", "note": "[CCl4, carbon tetrachloride]", "values": [
      {"measurement": "total liver cell turnover (proliferation of liver cells)", "setting": "[1]", "value": "increased proliferation of liver cells"},
      {"measurement": "collagen synthesis in mouse liver", "setting": "[2]", "value": "increases collagen synthesis"}
    ]}
  ]
}
